{
  "source": "patent US6361595B1",
  "about": "“Process for the preparation of pigment compositions” (Ciba Specialty Chemicals Corporation, priority 1999, dated 2002)",
  "format_in_all_cases": "cell-based, bacteria",
  "key": {"[1]": {"system": "mixed culture of Gram-positive cocci, Gram-negative cocci, Gram-positive rods and Gram-negative rods", "assay": "Microbial contamination of dried Pigment Yellow 74 powder (Example 1 procedure) after mixing filter cake with bacterial culture", "procedure": "(§1) Susceptibility to microbial contamination is assessed according to the following procedure:\n(§2) Microbial contamination is assessed using individual bacteria of the morphological types, Gram-positive cocci, Gram-negative cocci, Gram-positive rods and Gram-negative rods which are maintained on Nutrient Agar slopes. When required, each is cultured in Nutrient broth at 30° C. until an organism count of >10^8 colony-forming units (cfu) per milliliter (ml) is reached. The individual cultures are then mixed in equal proportions to provide a mixed culture which is then used immediately.\n(§3) 23.3 parts of acetic acid (80%) are added to a solution of 55 parts of acetoacet-o-anisidide dissolved in a solution of 25.5 parts of sodium hydroxide (47%) in 450 parts of water at a temperature of 0° C. The resultant slurry is reacted with 42.5 parts of p-nitro-o-anisidine previously diazotised with 45.4 parts of sodium nitrite (37%) and 56 parts of hydrochloric acid (36%) in the usual manner with simultaneous addition of sodium hydroxide solution (10%) to maintain pH 5.5-6.0. To the coupled slurry are then added 3 parts of dibutyl sebacate and 1 part of dimethylbenzyl-C12-14alkylammonium chloride (100% active) and the mixture is heated to a temperature of 100° C. and maintained at this temperature for one hour. The product is then filtered and washed with water under vacuum to remove soluble salts. The filter cake(still under vacuum suction) is mixed with a bacterial culture (10 ml of culture diluted to 100 ml with water)and vacuum suction is maintained until no further liquid emanates from the filter cake. The filter cake, without further washing, is then dried and converted to a powder by grinding. The powder is then passed through a 150 micron sieve.\nThe procedure described in Example 1 is repeated, but varying the type of biocide and amount of biocide used. The procedure for determining the extent of microbial contamination is as follows:\n(§4) 10 mg of the sieved powder and one drop of sterile water are evenly spread on a Nutrient Agar plate with a glass spreader under aseptic conditions and the plate incubated at 30° C. for 48 hours, The number of bacterial colonies evident on each plate are then counted and expressed as the number of colony-forming units per gram (cfu/g)."}, "[2]": {"system": "mixed culture of Gram-positive cocci, Gram-negative cocci, Gram-positive rods and Gram-negative rods", "assay": "Microbial contamination of dried Pigment Yellow 65 powder (Example 2 procedure) after mixing filter cake with bacterial culture", "procedure": "as §1, §2, §4\nas §3, with “(100%)” for “(80%)”, “o-nitro-p-anisidine” for “p-nitro-o-anisidine”, “cake (still” for “cake(still”, “water) and” for “water)and”\nThe procedure described in Example 2 is repeated, but varying the type of biocide and amount of biocide used.\nThe procedure described in Example 2 is repeated, but varying the type of biocide and amount of biocide used and omitting the DBS."}, "[3]": {"system": "mixed culture of Gram-positive cocci, Gram-negative cocci, Gram-positive rods and Gram-negative rods", "assay": "Microbial contamination of dried Pigment Yellow 13 powder (Example 5 procedure) after mixing filter cake with bacterial culture", "conditions": "PY13, no DBS", "procedure": "as §1, §2, §4\nA solution of 8.9 parts of acetic acid (100%) and 15 parts hydrochloric acid (36%) in 100 parts water are added to a solution of 63 parts of acetoacet-m-xylidide dissolved in a solution of 25.2 parts of sodium hydroxide (50%) in 676 parts of water at a temperature of 20° C. The resultant slurry is reacted with 36.9 parts of a previously tetrazotised solution of 3,3′-dichlorobenzidine, with simultaneous addition of sodium hydroxide solution (10%) to maintain pH 4.5-5.5. […] The product is then filtered and washed with water under vacuum to remove soluble salts. The filter cake (still under vacuum suction) is mixed with a bacterial culture (10 ml of culture diluted to 100 ml with water) and vacuum suction is maintained until no further liquid emanates from the filter cake. The filter cake, without further washing, is then dried and converted to a powder by grinding. The powder is then passed through a 150 micron sieve."}, "[4]": {"system": "mixed culture of Gram-positive cocci, Gram-negative cocci, Gram-positive rods and Gram-negative rods", "assay": "Microbial contamination of dried Pigment Yellow 74 powder (Example 1 procedure) after mixing filter cake with bacterial culture", "remark": "listed apart in the source"}},
  "data": [
    {"substance": "Benzyldimethyl-C12-14-alkylammonium chloride [KLC]", "values": [
      {"measurement": "microbial contamination, colony-forming units per gram", "setting": "[1]; PY74, 3 parts DBS + 1 part KLC", "result": 0, "unit": "cfu/g"},
      {"measurement": "microbial contamination, colony-forming units per gram", "setting": "[1]; PY74, 3 parts dibutyl sebacate, 0.1 parts biocide, plate 30° C. 48 hours", "result": ">10^4 cfu/g"},
      {"measurement": "microbial contamination, colony-forming units per gram", "setting": "[1]; PY74, 3 parts dibutyl sebacate, 0.5 parts biocide, plate 30° C. 48 hours", "result": 0, "unit": "cfu/g"},
      {"measurement": "microbial contamination, colony-forming units per gram", "setting": "[1]; PY74, 3 parts dibutyl sebacate, 1.0 parts biocide, plate 30° C. 48 hours", "result": 0, "unit": "cfu/g"},
      {"measurement": "microbial contamination, colony-forming units per gram", "setting": "[1]; PY74, 3 parts dibutyl sebacate, 3.0 parts biocide, plate 30° C. 48 hours", "result": 0, "unit": "cfu/g"},
      {"measurement": "microbial contamination, colony-forming units per gram", "setting": "[1]; PY74, 3 parts dibutyl sebacate, 5.0 parts biocide, plate 30° C. 48 hours", "result": 0, "unit": "cfu/g"},
      {"measurement": "microbial contamination, colony-forming units per gram", "setting": "[2]; PY65, omitting the DBS, 0.5 parts biocide", "result": "1.3 × 10^4 cfu/g"},
      {"measurement": "microbial contamination, colony-forming units per gram", "setting": "[2]; PY65, omitting the DBS, 1.0 parts biocide", "result": 0, "unit": "cfu/g"},
      {"measurement": "microbial contamination, colony-forming units per gram", "setting": "[2]; PY65, omitting the DBS, 3.0 parts biocide", "result": 0, "unit": "cfu/g"},
      {"measurement": "microbial contamination, colony-forming units per gram", "setting": "[2]; PY65, omitting the DBS, 5.0 parts biocide", "result": 0, "unit": "cfu/g"},
      {"measurement": "microbial contamination, colony-forming units per gram", "setting": "[2]; PY65, with 3 parts dibutyl sebacate, 0.5 parts biocide", "result": "2.7 × 10^3 cfu/g"},
      {"measurement": "microbial contamination, colony-forming units per gram", "setting": "[2]; PY65, with 3 parts dibutyl sebacate, 1.0 parts biocide", "result": 0, "unit": "cfu/g"},
      {"measurement": "microbial contamination, colony-forming units per gram", "setting": "[2]; PY65, with 3 parts dibutyl sebacate, 3.0 parts biocide", "result": 0, "unit": "cfu/g"},
      {"measurement": "microbial contamination, colony-forming units per gram", "setting": "[2]; PY65, with 3 parts dibutyl sebacate, 5.0 parts biocide", "result": 0, "unit": "cfu/g"},
      {"measurement": "microbial contamination, colony-forming units per gram", "setting": "[3]; 0.5 parts biocide", "result": ">10^4 cfu/g"},
      {"measurement": "microbial contamination, colony-forming units per gram", "setting": "[3]; 1.0 parts biocide", "result": ">10^4 cfu/g"},
      {"measurement": "microbial contamination, colony-forming units per gram", "setting": "[3]; 3.0 parts biocide", "result": 0, "unit": "cfu/g"},
      {"measurement": "microbial contamination, colony-forming units per gram", "setting": "[3]; 5.0 parts biocide", "result": 0, "unit": "cfu/g"},
      {"measurement": "microbial contamination, colony-forming units per gram", "setting": "[4]; PY74, 0 parts DBS + 1 part KLC", "result": 0, "unit": "cfu/g"},
      {"measurement": "microbial contamination, colony-forming units per gram", "setting": "[4]; PY74, 1 parts DBS + 1 part KLC", "result": 0, "unit": "cfu/g"},
      {"measurement": "microbial contamination, colony-forming units per gram", "setting": "[4]; PY74, 2 parts DBS + 1 part KLC", "result": 0, "unit": "cfu/g"}
    ]}
  ]
}
